Holding throughout (assay type): cell-based
Test [1] concerns the target T1, α-1A adrenoceptor (dog prostate) (Canis lupus, UniProt A0A8I3NK63).
T1 sequence (A0A8I3NK63 1-466): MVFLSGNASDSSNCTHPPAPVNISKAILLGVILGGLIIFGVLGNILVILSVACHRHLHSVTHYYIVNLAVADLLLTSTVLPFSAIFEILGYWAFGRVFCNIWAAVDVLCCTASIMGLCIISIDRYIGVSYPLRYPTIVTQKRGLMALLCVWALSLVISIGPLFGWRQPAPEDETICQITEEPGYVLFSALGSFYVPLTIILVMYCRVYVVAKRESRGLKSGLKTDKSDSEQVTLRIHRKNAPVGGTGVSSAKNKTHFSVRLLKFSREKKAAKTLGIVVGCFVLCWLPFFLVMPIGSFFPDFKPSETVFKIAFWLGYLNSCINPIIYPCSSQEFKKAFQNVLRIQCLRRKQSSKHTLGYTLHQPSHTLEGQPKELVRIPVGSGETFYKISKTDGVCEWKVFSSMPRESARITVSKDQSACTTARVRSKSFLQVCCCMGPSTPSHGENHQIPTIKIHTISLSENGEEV
The test can be described thus: Functional antagonism: phenylephrine (PE)-induced contraction of canine prostate strips. The conditions noted are these: vs phenylephrine, Schild plot. An outline of the steps: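 Canine prostate smooth-muscle strips in vitro, contracted by phenylephrine. Agonist dose–response curves repeated at rising test-agent concentrations; pA2 derived by Schild plot […].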

Test [2] has as its target T2, α-1A adrenoceptor (rat vas deferens) (Rattus norvegicus, UniProt P43140).
T2 construct: PE-induced contraction of rat vas deferens; from tissue; host or cells: rat vas deferens
T2 sequence (P43140 1-466): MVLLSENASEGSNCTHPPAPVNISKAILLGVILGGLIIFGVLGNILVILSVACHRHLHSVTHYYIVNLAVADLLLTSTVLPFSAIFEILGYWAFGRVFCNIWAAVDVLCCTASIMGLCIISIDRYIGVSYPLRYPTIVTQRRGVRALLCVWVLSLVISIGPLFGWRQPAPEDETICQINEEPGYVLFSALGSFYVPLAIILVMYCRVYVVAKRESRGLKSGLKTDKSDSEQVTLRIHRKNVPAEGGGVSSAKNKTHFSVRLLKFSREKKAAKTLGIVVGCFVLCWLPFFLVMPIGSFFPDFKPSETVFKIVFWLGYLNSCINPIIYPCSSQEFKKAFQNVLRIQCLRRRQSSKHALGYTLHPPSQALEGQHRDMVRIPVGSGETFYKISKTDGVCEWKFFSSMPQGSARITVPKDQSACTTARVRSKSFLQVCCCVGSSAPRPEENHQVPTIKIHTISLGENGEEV
The test is described as follows: Functional antagonism: phenylephrine (PE)-induced contraction of rat vas deferens. The conditions noted are these: vs phenylephrine, Schild plot; for Kb: read-out: pA2 Rat Vas Deferens [α-1A] (converted). An excerpt:
(§1) Functional assays indicative of pharmacologically defined α-1 adrenoceptors were used to further characterize compounds. Inhibition of phenylephrine (PE)-induced contraction of canine prostate smooth muscle can be correlated with α-1A adrenoceptor activation. […] For each of these models, agonist dose response curves were repeated against increasing concentrations of test agent to derive a Schild plot [log ([…]) against log (molarity of test agent)] to determine the pA2.

In test [3] the target is T3, α-1B adrenoceptor (rat spleen) (Rattus norvegicus, UniProt P15823).
T3 construct: PE-induced contraction of rat spleen; from tissue; host or cells: rat spleen
T3 sequence (P15823 1-515): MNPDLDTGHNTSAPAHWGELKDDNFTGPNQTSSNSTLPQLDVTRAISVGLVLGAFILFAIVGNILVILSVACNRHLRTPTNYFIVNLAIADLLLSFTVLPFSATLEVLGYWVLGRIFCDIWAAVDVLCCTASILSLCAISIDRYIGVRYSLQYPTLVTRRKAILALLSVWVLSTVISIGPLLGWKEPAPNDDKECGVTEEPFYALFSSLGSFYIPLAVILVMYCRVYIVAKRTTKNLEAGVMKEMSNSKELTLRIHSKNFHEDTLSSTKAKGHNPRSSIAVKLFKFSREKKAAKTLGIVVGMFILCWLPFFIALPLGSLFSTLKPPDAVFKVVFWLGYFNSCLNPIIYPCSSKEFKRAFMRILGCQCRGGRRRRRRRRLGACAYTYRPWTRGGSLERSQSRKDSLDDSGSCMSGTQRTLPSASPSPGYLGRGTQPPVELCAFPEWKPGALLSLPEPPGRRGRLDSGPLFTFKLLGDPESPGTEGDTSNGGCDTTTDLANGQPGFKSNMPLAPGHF
The test is described as follows: Functional antagonism: phenylephrine (PE)-induced contraction of rat spleen. The conditions noted are these: for Kb / pA2 Rat Spleen [α-1B]: vs phenylephrine, Schild plot; for Kb: read-out: pA2 Rat Spleen [α-1B] (converted).
From the text: as §1

Structures can show the parent of a compound that is named as a salt.

For the molecule `COc1cccc2c1CC[C@H]1CN(CCn3c(=O)[nH]c4c(sc5ccccc54)c3=O)C[C@@H]21` (relative stereo) [Example 1, hydrochloride], the “pA2 Dog Prostate [α-1A]” value in test [1] (Table 2a) came out at 8.74. For the same molecule, the Kb in test [2] is 4.27 nM; in test [3] it was 21.4 nM.

As for `COc1cccc2c1[C@@H]1CN(CCn3c(=O)[nH]c4c(sc5ccccc54)c3=O)C[C@@H]1CC2` (relative stereo) [Example 5, 3-[2-(cis-9-Methoxy-2,3,3a,4,5,9b-hexahydro-[1H]-benz[e]isoindol-1-yl)ethyl]-[1]benzothieno[3,2-d]pyrimidine-2,4(1H,3H)-dione hydrochloride], the “pA2 Dog Prostate [α-1A]” value in test [1] (Table 2a) amounted to 7.79. Further, the Kb in test [2] is 13.8 nM; in test [3], 148 nM.

Regarding `COc1cccc2c1CC[C@@H]1CN(CCn3c(=O)[nH]c4c(sc5ccccc54)c3=O)C[C@@H]21` (relative stereo) [Example 10, 3-[2-(trans-6-Methoxy-2,3,3a,4,5,9b-hexahydro-[[1H]-benz[e]isoindol-1-yl)ethyl]-[1]benzothieno[3,2-d]pyrimidine-2,4(1H,3H)-dione hydrochloride], the “pA2 Dog Prostate [α-1A]” value in test [1] (Table 2a) is 8.37. In addition, the Kb in test [2] was 3.09 nM; in test [3] it was 30.2 nM.

Consider `COc1cccc2c1CC[C@H]1CN(CCn3c(=O)c4sc5ccccc5c4n(C)c3=O)C[C@@H]21` (relative stereo) [Example 11, hydrochloride], for which the “pA2 Dog Prostate [α-1A]” value in test [1] (Table 2a) turned out to be 8.57. Further, the Kb was 2.82 nM in test [2] and 51.3 nM in test [3].

For the molecule `COc1cccc2c1CC[C@H]1CN(CCn3c(=O)[nH]c4c([nH]c5ccccc54)c3=O)C[C@@H]21` (relative stereo) [Example 14, hydrochloride], in test [1] (Table 2a), the “pA2 Dog Prostate [α-1A]” value amounted to 8.23. Further, the Kb in test [2] was 2.69 nM; in test [3] it was 23.4 nM.

`COc1cccc2c1CC[C@@H]1CN(CCn3c(=O)[nH]c4c([nH]c5ccccc54)c3=O)C[C@@H]21` (relative stereo) [Example 17, 3-[2-(trans-6-Methoxy-2,3,3a,4,5,9b-hexahydro-[[1H]-benz[e]isoindol-1-yl)ethyl]-1H-pyrimido[5,4-b]indole-2,4(3H,5H)-dione hydrochloride]: the “pA2 Dog Prostate [α-1A]” value in test [1] (Table 2a) came out at 8.29. Further, the Kb was 10.7 nM in test [2] and 63.1 nM in test [3].

For the molecule `COc1cccc2c1CC[C@@H]1CN(CCn3c(=O)[nH]c4c(oc5ccccc54)c3=O)C[C@@H]21` (relative stereo) [Example 18, 3-[2-(trans-6-Methoxy-2,3,3a,4,5,9b-hexahydro-[[1H]-benz[e]isoindol-1-yl)ethyl]-benzofuro[3,2-d]pyrimidine-2,4(1H,3H)-dione hydrochloride], the “pA2 Dog Prostate [α-1A]” value in test [1] (Table 2a) came to 8.37. Besides, the results for the Kb in test [2] and in test [3] were 13.8 nM and 13.5 nM, respectively.

In the case of `COc1cccc2c1CC[C@H]1CN(CCn3c(=O)[nH]c4c(sc5ncccc54)c3=O)C[C@@H]21` (relative stereo) [Example 23, hydrochloride], in test [1] (Table 2a), the “pA2 Dog Prostate [α-1A]” value came out at 8.97. Besides, the Kb was 5.13 nM in test [2] and 151 nM in test [3].

With `COc1cccc2c1CC[C@H]1CN(CCn3c(=O)[nH]c4c(ccc5ccccc54)c3=O)C[C@@H]21` (relative stereo) [Example 25, hydrochloride], the “pA2 Dog Prostate [α-1A]” value in test [1] (Table 2a) came out at 8.27. For the same molecule, the Kb is 2.19 nM in test [2] and 174 nM in test [3].

With `O=c1[nH]c2c(sc3cccnc32)c(=O)n1CCN1C[C@@H]2CCc3c(ccc4c3OCO4)[C@@H]2C1` (relative stereo) [Example 112, dihydrochloride], the “pA2 Dog Prostate [α-1A]” value in test [1] (Table 2a) is 8.18. In addition, the “pA2 Rat Vas Deferens [α-1A]” value in test [2] was 7.92. Further, the “pA2 Rat Spleen [α-1B]” value in test [3] is given as 7.2.

With `COc1cccc2c1CC[C@@H]1CN(CCn3c(=O)[nH]c4c(sc5ccccc54)c3=O)C[C@H]21` [Example 8, 3-[2-((3aS,9bS)-cis-6-Methoxy-2,3,3a,4,5,9b-hexahydro-[1H]-benz[e]isoindol-1-yl)ethyl][1]benzothieno[3,2]pyrimidine-2,4(1H,3H)-dione hydrochloride], the “pA2 Dog Prostate [α-1A]” value in test [1] (Table 2a) stood at 7.63. The Kb in test [2] was 17.4 nM; in test [3], 55 nM.

As for `COc1cccc2c1CC[C@H]1CN(CCn3c(=O)[nH]c4c(sc5ccccc54)c3=O)C[C@@H]21` [Example 9, hydrochloride], in test [1] (Table 2a), the “pA2 Dog Prostate [α-1A]” value is listed as 8.63. For the same molecule, the Kb was 1.95 nM in test [2] and 25.7 nM in test [3].

Turning to `COc1cccc2c1[C@@H]1CN(CCn3c(=O)[nH]c4c(sc5ccccc54)c3=O)C[C@@H]1CC2` [Example 16, hydrochloride], the “pA2 Dog Prostate [α-1A]” value in test [1] (Table 2a) is recorded as 8.54. For the same molecule, the Kb in test [2] was 10.5 nM; in test [3], 56.2 nM.

For the molecule `COc1cccc2c1CC[C@H]1CN(CCn3c(=O)[nH]c4c([nH]c5ccccc54)c3=O)C[C@@H]21` [Example 26, 3-[2-((3aR,9bR)-cis-6-Methoxy-2,3,3a,4,5,9b-hexahydro-[1 H]-benz[e]isoindol-1-yl)ethyl]-1H-pyrimido[5.4-b]indole-2,4(1H,3H)-dione hydrochloride], the “pA2 Dog Prostate [α-1A]” value in test [1] (Table 2a) was 8.63. In addition, the Kb is 2.75 nM in test [2] and 7.41 nM in test [3].

`COc1cccc2c1CC[C@H]1CN(CCn3c(=O)[nH]c4c(sc5ncccc54)c3=O)C[C@@H]21` [Example 31, 3,2-((3aR,9bR)-cis-6-Methoxy-2,3,3a,4,5,9b-hexahydro-[1H]-benz[e]isoindol-1-yl))ethyl]-pyrido[3',2':4,5]thieno[3,2-d]pyrimidine-2,4(1H,3H)-dione hydrochloride]: in test [1] (Table 2a), the “pA2 Dog Prostate [α-1A]” value is 8.78. Besides, the Kb in test [2] was 2.24 nM; in test [3] it was 17.4 nM.

With `COc1cccc2c1CC[C@H]1CN(CCn3c(=O)[nH]c4c(sc5cnccc54)c3=O)C[C@@H]21` [Example 36, dihydrochloride], the “pA2 Dog Prostate [α-1A]” value in test [1] (Table 2a) is given as 9.71. Moreover, the Kb in test [2] is 2.51 nM; in test [3] it was 7.94 nM.

As for `COc1cccc2c1CC[C@H]1CN(CCn3c(=O)[nH]c4c(sc5nccnc54)c3=O)C[C@@H]21` [Example 39], the “pA2 Dog Prostate [α-1A]” value in test [1] (Table 2a) stood at 9.16. Also, the “pA2 Rat Vas Deferens [α-1A]” value in test [2] worked out at 8.33. In test [3], the “pA2 Rat Spleen [α-1B]” value was determined as 7.76.

Regarding `COc1cccc2c1CC[C@H]1CN(CCn3c(=O)[nH]c4c(sc5ccc(C(=O)N6CCOCC6)cc54)c3=O)C[C@@H]21` [Example 58, hydrochloride], the “pA2 Dog Prostate [α-1A]” value in test [1] (Table 2a) is 9.09. Also, the Kb is 4.37 nM in test [2] and 36.3 nM in test [3].

For the molecule `CCOc1cccc2c1CC[C@H]1CN(CCn3c(=O)[nH]c4c(sc5ncccc54)c3=O)C[C@@H]21` [Example 109, hydrochloride], in test [1] (Table 2b), the “pA2 Dog Prostate [α-1A]” value amounted to 8.00.

As for `CCc1cccc2c1CC[C@H]1CN(CCn3c(=O)[nH]c4c(sc5cccnc54)c3=O)C[C@@H]21` [Example 113, dihydrochloride], the “pA2 Dog Prostate [α-1A]” value in test [1] (Table 2b) came to 8.22.

For the molecule `COc1cc2nc(N3CCN(C(=O)C4COc5ccccc5O4)CC3)nc(N)c2cc1OC` (stereo not drawn) [doxazosin, reference compound], the “more potent effect on spleen smooth muscle” value in test [3] (PE-induced contraction, pA2 models compared) was “more potent effect on spleen smooth muscle by approximately an order of magnitude”.
